Test results as given in patent US11712466B2, “Vaccine composition” (TOHOKU UNIVERSITY, priority 2017, dated 2023).
Entries after “also recorded” stand apart in the source; their conditions may differ. Ends that are not written are not given here.

Key:
[1] = test system: Lewis lung cancer cells (LLC); assay: Subcutaneous implant model, tumor growth inhibitory effect (LLC); type: in vivo, mouse; settings: immunized C57BL/6J mice, cells implanted s.c. on day 29, measured 14 days after implantation
Method: (§1) After 2 weeks from the administration of each peptide vaccine and incomplete Freund's adjuvant in Example 1 (on day 29 after the initial peptide vaccine administration), mouse-derived tumor cells were implanted in an immunized mouse, whereby a subcutaneous implant model was prepared. Specifically, mouse lung cancer cells (Lewis lung cancer cells (LLC)) or mouse melanoma cells (B16F1) (all have C57BL/6J as a genetic background) cultured in a RPMI+10% FBS medium were collected by centrifugation, and a cell suspension (1.0×10^8 cells/mL) was prepared with a serum-free medium, and 0.1 mL (1.0×10^7 cells/animal) of the cell suspension was implanted in a right axillary subcutaneous region of a mouse using a 27G injection needle and a syringe, whereby a subcutaneous implant model of tumor cells was prepared.

[2] = test system: mouse melanoma cells (B16F1); assay: Subcutaneous implant model, tumor growth inhibitory effect (B16F1); type: in vivo; settings: immunized C57BL/6J mice, cells implanted s.c. on day 29, measured 14 days after implantation
Method: as §1

mTwist1 = assay: Gene expression in excised tumor tissue by real-time PCR, mTwist1; type: in vivo, mouse; settings: tumor excised two weeks after implantation
Method: The mouse implanted with the tumor cells in Example 2 was sacrificed two weeks after implantation of the tumor cells, and a tumor was excised from the right axillary subcutaneous region. By using RNeasy Plus Kit (Qiagen, Inc.), extraction of the total RNA from the excised tumor and purification thereof were carried out. By using the obtained total RNA as a template, cDNA was synthesized by reverse transcription reaction. The cDNA was analyzed by performing real-time PCR using a mixed solution of the obtained cDNA and SYBR green (TAKARA BIO, Inc.).

[3] = test system: mouse lung cancer cells (LLC); assay: Metastasis inhibitory effect in vivo, LLC injected through tail vein, lung metastatic lesion; settings: 20 or 100 μg, day 21 after LLC injection
Method: 20 μg or 100 μg of KLH (control) and 20 μg or 100 μg of the peptide represented by SEQ ID NO: 4 conjugated with KLH (MTG peptide vaccine) were prepared with physiological saline so that the total amount was 100 μL, respectively, whereby KLH-mixed solutions were obtained. To each of the KLH-mixed solutions (100 μL), an equal amount of complete Freund's adjuvant or Alhydrogel (registered trademark) (Invitrogen) was added. The obtained mixture (200 μL) was intradermally (ID) administered to C57BL/6J male mice (n=5) aged 8 weeks, whereby initial immunization was carried out (0 day). Incidentally, in the intradermal administration, 200 μL was administered at a dose of 100 μL each to two sites. After 2 weeks from the administration (14 days), booster immunization was carried out by subcutaneously administering a mixture of each of the KLH-mixed solutions (100 μL) and an equal amount of incomplete Freund's adjuvant or Alhydrogel (registered trademark) to the mice. […] Further, at that time point, the blood was collected from each mouse, and the antibody titer of an antibody specific to the VASH2 protein was measured by ELISA. The mice were sacrificed on day 21 after the injection of LLC (49 days), and the lung metastatic lesion was analyzed (FIG. 7). […]

Substance: MTG peptide vaccine: MTG peptide MTGSAADTHR (SEQ ID NO: 4) conjugated with KLH as carrier by a glutaraldehyde method (also: conjugated with KLH by glutaraldehyde)
- tumor size (tumorigenesis), Lewis lung cancer cells [1]: marked inhibition of tumorigenesis; also recorded: marked inhibition of tumor growth
- tumor size (tumorigenesis), B16F1 melanoma cells [2]: marked inhibition of tumorigenesis; also recorded: marked inhibition of tumor growth
- expression of mTwist1 (epithelial-mesenchymal transition marker) in tumor tissue (mTwist1): dose-dependent expression inhibitory effect; also recorded: significantly inhibited depending on the dose
- metastasis of cancer cells (lung metastatic lesion), LLC ([3]; Alhydrogel adjuvant): inhibited metastasis of cancer cells
- metastasis of cancer cells (lung metastatic lesion), LLC ([3]; Freund's adjuvant): inhibited metastasis of cancer cells
